Data set [1] addresses T1, SOD1 (Homo sapiens, UniProt P00441, G94A).
T1 construct: Extraction of SOD1^G93A from red blood cell (RBC) protein was performed as previously described; tissue Jackson Laboratory 002726; host or cells: red blood cells of transgenic B6SJL-Tg(SOD1*G93A)1Gur/J mice
The data set can be described thus: Target engagement in blood during the survival studies. The class given is in vivo, mouse. The text has this: (§1) Two fALS lines were used to assess survival in genetic backgrounds with different disease severity. […] Dose and dose regimen were estimated from the blood PK/PD profile and BBB penetration described above. A subcutaneous (SC) route of administration was chosen because in our hands it results in more precise delivery. […] In both studies, mice were gender and littermate matched and non ALS-related deaths were excluded. We are currently developing the methods necessary for quantifying copy number and cannot rule out reduced SOD1 expression as having contributed to the survival benefit in treated B6 G93A mice.
The data underlying this figure can be found in S1 Data. fALS, familial amyotrophic lateral sclerosis.

The next data set addresses human serum albumin (Homo sapiens, UniProt P02768). The data set is classed as in vitro ADME.
Another data set addresses SOD1^G93A (Homo sapiens, UniProt P00441, G94A). The data set can be described thus: Small-angle x-ray solution scattering (SAXS). Conditions: GNOM; untreated over 200 Å. Set-up: made in house; host or cells: EGy118ΔSOD1 yeast, YEp351 expression vector. As to the method:
SAXS data were collected at the G1 beamline at Cornell High Energy Synchrotron Source (CHESS). For each sample, 2 measurements were taken, one of the protein with buffer and one with buffer by itself. Solution scattering data were captured every second for 10 frames. The 10 frames of both buffer and protein were then averaged and the buffer was subtracted out to get the scattering for the protein. Samples were run in a 96-well plate and held at 4°C continuously. Data collection was in the scattering angle (q) range of 0.008 to 0.71 Å^-1 and processed using the software, RAW.
Control sample contained 5% MeOH (final conc. 2.5%). Samples were then incubated at 37°C for 6 h to ensure complete cross-linking. After incubation, excess compound was buffer exchanged out of each sample using a 10 kDa MWCO ultrafiltration device, and 320 μL is diluted to 15 mL into HEPES buffer, spun down to approximately 500 μL, and resuspended in another 15 mL of HEPES buffer. After the final spin, samples were removed and concentrated in a smaller ultrafiltration device and brought to approximately 70 μL final volume (4.7 μm). Samples were flash frozen and stored at –80°C prior to analysis.
The GNOM program was used to evaluate the pair distribution plot using an indirect Fourier transform. […]

Data set [2] is classed as in vitro ADME. Conditions: human; for plasma protein binding assay readout (Fig 6C): 50 uM. An excerpt: Fig 6 Cross-linking at sub-toxic concentrations within cells. […] Results are shown as percentage of viable cells compared to a vehicle control. Note: cell viability <70% (dotted line) is generally considered as the threshold for cytotoxicity, and viabilities >100% indicate a trophic effect. Controls included EMEM with 0.1% DMSO (dimethyl sulfoxide, negative control) and 500 μm of chlorpromazine (positive control). […] The data underlying this figure can be found in S1 Data. LC-MS/MS, liquid chromatography-tandem mass spectrometry; MS, mass spectrometry; SOD1, superoxide dismutase 1.

The subject of the next data set is B6SJL G93A mice. The data set can be described thus: Survival study, hybrid B6SJL G93A mice, S-XL6 SC 20 then 50 mg/kg once a day Monday to Friday. The class given is in vivo, mouse.
Excerpt: as §1
The first line was derived by crossing (over >10 generations) congenic fALS “B6 G93A mice” (B6.Cg-Tg(SOD1*G93A)1Gur/J, Stock No. 004435, The Jackson Laboratory, Bar Harbor, Maine, USA) with “YFP-16 mice” [50] (B6.Cg-Tg(Thy1-YFP)16Jrs/J, Stock No. 003709, The Jackson Laboratory, Bar Harbor, Maine, USA). This line maintains the C57BL/6J genetic background and expresses YFP in motor and sensory neurons to enable cellular-level molecular profiling in future studies. The second line is the standard “Hybrid B6SJL G93A mice” (B6SJL-Tg(SOD1*G93A)1Gur/J Stock No. 002726, The Jackson Laboratory, Bar Harbor, Maine, USA). Methods for survival studies have been described and followed the conventions for optimal trial design with fALS mice. Mice were tested for difference in: (1) disease onset (at least a 20% decrease in grip strength and open-field motor performance, which we expect to correlate with change in weight); (2) disease end-stage (disease score, e.g., loss of righting reflex); and (3) weight. The hybrid line was additionally tested for differences in forelimb and hindlimb grip strength.

The target in data set [3] is SOD1 (Homo sapiens, UniProt P00441). The data set is classed as binding. As to the method: A computational search was performed in PubChem to identify all compounds containing a cyclic disulfide motif. […] Of these, 69 compounds cross-linked SOD1 with a wide array of reaction rates. Only 2 compounds could cross-link 100% of SOD1 during the assay, including one 5-membered cyclic disulfide (4-Amino-1,2-Dithiolane-4-Carboxylic Acid) and one 6-membered cyclic thiosulfinate (1,2-dithiane 1-oxide).
Chain of SOD1 (Homo sapiens, UniProt P00441) (P00441 2-154 limits assumed): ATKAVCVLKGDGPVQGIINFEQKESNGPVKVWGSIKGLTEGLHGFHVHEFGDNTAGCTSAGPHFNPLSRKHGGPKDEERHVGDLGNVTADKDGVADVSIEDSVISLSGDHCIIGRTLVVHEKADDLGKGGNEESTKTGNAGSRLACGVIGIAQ

In the next data set the test system is fALS SOD1 variants. The data set can be described thus: Size exclusion chromatography (SEC) under native conditions. On the set-up: species or system human. As to the method:
We have analyzed samples with and without cross-linker via SEC with high performance liquid chromatography (SEC-HPLC) to assess the SOD1 protein composition in its native state. […] For inducing aggregation, all samples (final conc. 1 μm) were incubated at 37°C for 1 h prior the SEC analysis. […] An isocratic mobile phase consisting of 100 mM sodium phosphate, 200 mM sodium chloride (pH 7.4) was used for 6 min to analyze each sample at wavelength of 280 nm. Waters BEH 200 standard was injected at the beginning, middle, and at the end to confirm the retention time was not shifting throughout the entire experiment.
In general terms: SEC sorts molecules by how far they enter the pores of the column.

SMILES strings stand for the structures. “And” between values parts separate entries of the source, which are not always exact repeats. Equal entries are not always repeated. “Also recorded” adds a separate entry of the source. Where two headings read alike, the source gives them in different places.

T1 sequence (P00441 2-154 G94A limits assumed): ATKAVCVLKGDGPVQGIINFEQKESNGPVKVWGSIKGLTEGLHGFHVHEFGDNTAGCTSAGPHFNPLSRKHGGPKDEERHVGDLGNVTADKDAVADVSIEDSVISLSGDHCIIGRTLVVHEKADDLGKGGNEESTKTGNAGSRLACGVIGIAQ
Chain of SOD1^G93A (P00441 2-154 G94A limits assumed): as above
Chain of human serum albumin (P02768 25-609): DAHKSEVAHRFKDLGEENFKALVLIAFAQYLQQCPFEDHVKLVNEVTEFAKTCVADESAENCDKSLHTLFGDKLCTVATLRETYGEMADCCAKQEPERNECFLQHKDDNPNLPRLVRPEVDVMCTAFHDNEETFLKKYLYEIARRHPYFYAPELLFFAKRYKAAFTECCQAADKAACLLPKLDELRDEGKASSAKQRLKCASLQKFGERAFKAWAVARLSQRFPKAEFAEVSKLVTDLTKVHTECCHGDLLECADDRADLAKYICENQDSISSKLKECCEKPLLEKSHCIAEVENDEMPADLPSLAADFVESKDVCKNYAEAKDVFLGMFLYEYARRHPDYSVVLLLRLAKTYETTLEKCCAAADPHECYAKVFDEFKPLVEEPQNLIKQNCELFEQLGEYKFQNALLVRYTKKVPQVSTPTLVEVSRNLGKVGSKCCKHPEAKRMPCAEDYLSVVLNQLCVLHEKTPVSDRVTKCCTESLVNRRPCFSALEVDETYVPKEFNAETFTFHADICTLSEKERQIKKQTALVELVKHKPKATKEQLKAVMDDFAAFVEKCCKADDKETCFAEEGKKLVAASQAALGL

In the case of `[O-][S+]1CCCCS1` (stereo not shown) [S-XL6, 1,2-dithiane-1-oxide], the “target engagement after initial dose” value at SOD1 [1] (B6SJL G93A mice, initial SC dose of 20 mg/kg) is “lower target engagement than expected”. Moreover, the “SOD1 engaged (on average) over time” value at SOD1 [1] (survival studies, 50 mg/kg SC) is “approximately 40%”. In addition, the “binding to purified protein” value at human serum albumin was “not bound”. Further, the “Dmax of SOD1^G93A with S-XL6” value at SOD1^G93A is “approximately 79 Å”. Moreover, the “plasma protein binding assay readout (Fig 6C)” value in data set [2] came to 79%. Also, in data set [2] (plasma), the plasma protein binding result is “no binding” and the “plasma protein binding assay readout (Fig 6C)” value was found to be 144%. The survival benefit entry in the data set on B6SJL G93A mice (50 mg/kg SC once a day, Monday to Friday, from day 70) is recorded as “no survival benefit; also recorded: No survival improvement”. The “Age (wks)” value in the data set with B6SJL G93A mice (individual mice, Tx D (dosed), age at end-stage, found dead or sacrifice) was 17.7143 wks and 17.5714 wks and 17.8571 wks and 15.5714 wks and 18.7143 wks and 17.4286 wks and 16.1429 wks and 18 wks and 15.8571 wks and 17.1429 wks. The “Age” value with B6SJL G93A mice (individual mice, Tx D (dosed), age at end-stage, found dead or sacrifice (131-day mice sac'd for tissue)) is 124 days and 123 days and 125 days and 109 days and 131 days and 122 days and 113 days and 126 days and 111 days and 120 days. Also, on SOD1 [3], the “SOD1 cross-linked during the assay” value is recorded as 100%. In addition, in the data set on fALS SOD1 variants, the “monomeric population of fALS variants after S-XL6 treatment” value is on record as “decreased”. Also, the “large (>1,000 kDa) aggregates after S-XL6 treatment” value in the data set with fALS SOD1 variants (all fALS variants tested) is given as “diminished”.
